Experimental findings from US20140274881A1, “BIODEGRADABLE THERAPEUTIC NANOPARTICLES CONTAINING AN ANTIMICROBIAL AGENT” (CAROLINAS HEALTHCARE SYSTEM, priority 2008, published 2014) are described below.

Molecules are shown by their SMILES.

Series [1] can be described thus: In vitro drug release by dialysis method under sink conditions. It is filed as physicochemical. To be noted: nafcillin-PBS solution without polymer nanoparticles in dialysis bag, 37° C. The text has this:
A dialysis method was used in the measurement of in vitro drug release. Drug release studies were done under sink conditions; the volume of the buffer was kept large (outer sink) compared to the volume of drug-loaded nanoparticles suspension in the dialysis bag. The (theoretical) situation of infinite dilution is known as a perfect sink; however, even though perfect sink conditions are never attainable in practice, they are the only situation in which a true release profile can be measured. For a given matrix volume, an increase in liquid volume or volume ratio will promote drug release due to the lower drug concentrations in the medium. The system developed was continuously agitated, resulting in the faster diffusion of drug through the dialysis membrane to the outer sink. FIG. 9A is a plot of cumulative drug release (%) versus time in hours, for release of nafcillin from nafcillin-PBS solution loaded in a dialysis bag with a molecular weight cut-off of 6 kDa at 37° C. FIG. 9B is a plot of cumulative drug release (%) versus time in hours for release of nafcillin from nafcillin-PBS solution loaded in a dialysis bag with a molecular weight cut-off of 12-14 kDa at 37° C. The release of nafcillin from nafcillin-PBS solution without polymer nanoparticles was rapid, since 97% of the drug was released within the first nine (9) hours. […]

In series [2] the test system is intracellular S. aureus. The experiment in a line: Viability of intracellular S. aureus in infected osteoblasts treated with nanoparticles. In kind it is cell-based, Staphylococcus aureus. To be noted: nafcillin alone, no nanoparticles. Here is the method: The viability of intracellular S. aureus following treatment with nanoparticles was determined. S. aureus was allowed to infect cultured primary mouse osteoblasts as described herein, followed by removal and killing of all remaining extracellular bacteria in culture. […] None of the nanoparticle preparations had any effect on osteoblast viability. All loaded formulations of particles caused a significant decrease in the viability of intracellular S. aureus inside infected osteoblasts at both 24 and 48 hours.
FIG. 11 is a bar graph showing viability of intracellular S. aureus in osteoblasts treated with nanoparticles or nanoparticles loaded with nafcillin. Primary mouse osteoblasts were infected intracellularly with S. aureus and were subsequently treated with unloaded nanoparticles (G1 and G2) or nanoparticles loaded with nafcillin (G1.1, 1.2, 2.1 and 2.2) for 1 (0 hour), 24 and 48 hours. Osteoblasts were subsequently lysed following these time intervals with a solution containing 0.1% triton X-100, and serial dilutions of the lysates were plated on tryptic soy agar (TSA). Following an overnight incubation at 37° C., numbers of viable bacteria were enumerated, *, P<0.05 versus S. aureus-treated osteoblasts at the same time point. […]
Following resuspension in OBGM, bacterial cell density is determined via spectrophotometric analysis. […]

As for `CCOc1ccc2ccccc2c1C(=O)N[C@@H]1C(=O)N2[C@@H]1SC(C)(C)[C@@H]2C(=O)O` [nafcillin, Nafcillin], in series [1], the “cumulative drug release within the first nine (9) hours” value is listed as 97%. For the same compound, in series [2], the “viability of intracellular S. aureus, compared with untreated infected osteoblasts” value was “indistinguishable from untreated S. aureus-infected osteoblasts”.
